Entries after “also recorded” stand apart in the source; their conditions may differ.
Columns and labels:
[1] = system: OPN; assay: OPN mRNA by qRT-PCR in metastatic melanoma cell lines; format: cell-based, human; details: MDA-MB-435
Description: This medium was replaced with fresh cyclopamine-containing medium after 12 h. […] RNA was assessed by real-time RT-PCR for OPN transcript levels.
Quantitative RT-PCR (qRT-PCR)-cDNA was generated using High Capacity Reverse Transcriptase Kit (Applied Biosystems, Foster City, Calif.). Real time PCR was performed using a Bio-Rad iQ5 Real-Time Detection system (Bio-Rad). All reactions were done as three independent replicates. All assays were done using the TaqMan Gene Expression Assays from Applied Biosystems. OPN (SPP1: Hs 00959010_m1) transcript levels were normalized to glyceraldehyde-3-phosphate dehydrogenase (Hs 99999905_m1) levels (δCT), which was used to calculate changes in OPN expression (2^−δδCT). […] GLI1 and SHH (Hs 00179843_m1) expressions were also similarly assessed with glyceraldehyde-3-phosphate dehydrogenase as an endogenous control. To analyze the knockdown effectiveness, “scrambled transfectants” of MDA-MB-435 was set as calibrator.

[2] = system: OPN; assay: OPN regulation and GLI1 localisation in osteoblastic cells hFOB and MC3T3-E1; format: cell-based
Description: The role of the Hedgehog pathway in regulating the expression of OPN in the two osteoblastic cell lines, hFOB and MC3T3-E1 was assessed.
Quantitative RT-PCR (qRT-PCR)-cDNA was generated using High Capacity Reverse Transcriptase Kit (Applied Biosystems, Foster City, Calif.). Real time PCR was performed using a BioRad iQ5 Real-Time Detection system (Bio-Rad, Hercules, Calif.). All reactions were done in triplicate. OPN transcript levels were normalized to GAPDH levels (dCT) which was used to calculate changes in OPN expression (2-ddCT). […] The primers used included Spp1 (OPN) (Mm 00436767_m1); Bglap (osteocalcin) (Mm 01741771_g1); IBSP (Mm 00492555_m1); PTHrP (Mm 00433057_m1); RANKL (Mm 00441906_m1); GAPDH (Mm 99999915_g1).

[3] = system: RAW264.7 cells; assay: Osteoclast differentiation, TRAP assay, RAW264.7; format: cell-based, murine
Description: Cell lines—Human metastatic breast cancer cells, MDA-MB-231, were cultured in Dulbecco's Modified Eagle's Medium (DMEM/F12; Invitrogen, Carlsbad, Calif.), supplemented with 2 mM L-glutamine, 1 mM sodium pyruvate, 0.02 mM non-essential amino acids, 5% fetal bovine serum, FBS (Atlanta Biologicals, Norcross, Ga.), without antibiotics or antimycotics (cDME/F12). SUM1315 and SUM159 cells (DiMeo, T. A., et al. (2009) Cancer Res 69, 5364-5373) (Asterand, Detroit, Mich.) were cultured in DMEM/F12 supplemented with […] insulin, 5% FBS (Atlanta Biologicals) and either 10 ng/ml EGF or 1 ng/ml hydrocortisone, without antibiotics or antimycotics. The SUM1315 cells are derived from a metastasis in a patient with infiltrating ductal carcinoma; SUM159 cells were derived from a primary breast tumor with metaplastic ccarcinoma. RAW264.7 (ATCC, TIB 71) cells, a murine pre-osteoclastic line capable of differentiation and mineralization in culture (in presence of RANKL and MCSF), were grown in DMEM with L-glutamine (ATCC, 30-2002) supplemented with 10% FBS. A 2× differentiation medium (DM) was formulated for the RAW 264.7 cells comprising RAW264.7 growth medium supplemented with 20% FBS, RANKL (100 ng/ml) and M-CSF (40 ng/ml) (Matsubara, T., et al. J Bone Miner Res 25, 1068-1076). Conditioned media was harvested from breast cancer cells and mixed in a 1:1 ratio with double strength differentiation medium to assess the effect on osteoclast differentiation. 1×DM was used as control or wherever SHH (R & D Systems, Minneapolis, Minn.) or OPN (R & D Systems) was used alone. The medium on the RAW264.7 cells was replenished every 48 hours. In order to assess the effect of secreted Hh ligands, the neutralizing 5E1 antibody was used (Developmental Studies Hybridoma Bank, at the University of Iowa, Iowa). The amount of 5E1 antibody used for the studies was determined following titration of the antibody with respect to its effects on osteoclast differentiation. Medium was supplemented with 5E1 (2.5 μg/ml) and was changed on alternate days until the end of the experiment. The effect of OPN on osteoclast activity was assessed by transfecting an OPN shRNA-expressing construct on day 6 post-induction of differentiation. Fresh DM was added the following day and cells were allowed to grow for another 12 hours before termination of experiment. GLI1 expression was silenced in the SUM1315 cells using shRNA targeting GLI1 into pSuperior. gfp+neo (Oligoengine, Wash., USA). […]
Osteoclast differentiation and activity assays—Tartarate-resistant acid phosphatase (TRAP) assay was conducted for RAW 264.7 following the manufacturer's protocol (Sigma, St. Louis, Mo.). […] The percentage of area resorbed was calculated using the NIS-Elements BR. […]

[4] = system: RAW264.7 cells; assay: Osteoclast resorption activity, OAAS plates; format: cell-based, murine; details: DM supplemented with SHH (100 nM) or OPN (100 ng/ml)
Description: Osteoclast differentiation and activity assays—Tartarate-resistant acid phosphatase (TRAP) assay was conducted for RAW 264.7 following the manufacturer's protocol (Sigma, St. Louis, Mo.). This assay was indicative of the extent of differentiation. OAAS plates (Osteogenic Core Technologies, Choongnam, Republic of Korea) were utilized to measure osteoclastic activity. RAW 264.7 cells (25×103) were inoculated in 48-well plates. Cells were treated with serum-free conditioned media from breast cancer cells or 100 nM SHH or 100 ng/ml OPN on the following day. Media was changed every two days and the experiments were terminated either on day 6 (day 7 for knockdown experiments, with transfections being done on the sixth day). At the completion, cells were detached with 5% sodium hypochlorite and the wells were observed under a Nikon Eclipse TS 100 microscope at 10× magnification. […] The percentage of area resorbed was calculated using the NIS-Elements BR. 3.1 software.

## CC1=C2C[C@H]3[C@@H](CC=C4C[C@@H](O)CC[C@@]43C)[C@@H]2CC[C@]12O[C@@H]1C[C@H](C)CN[C@H]1[C@H]2C [cyclopamine]
[1]; MCC012A, MCC012F, cyclopamine 24 h
  OPN mRNA levels: decreases the levels of OPN mRNA
[2]; hFOB / pre-osteoblasts, cyclopamine
  OPN transcript levels: decreases OPN mRNA levels; also recorded: inhibited the transcription of OPN; also recorded: reduction in the levels of OPN transcript levels
[2]; hFOB, cyclopamine 20 μM, 24 h
  GLI1 subcellular localisation: keeps GLI1 sequestered in the cytosolic compartment
[3]; DM + cyclopamine 20 μM
  osteoclast differentiation into TRAP-positive, multinucleate osteoclasts: significantly (p<0.0001) reduced the ability of DM to elicit differentiation
[3]; tumor cells treated with cyclopamine
  ability of MDA-MB-435 conditioned medium to induce osteoclast differentiation: significant reduction in this ability

## SHH: recombinant Sonic hedgehog ligand (R & D Systems)
[1]; cyclopamine 20 μM, recombinant SHH 100 nM
  rescue of OPN transcript levels from cyclopamine inhibition: reverse and rescue the inhibitory effects of cyclopamine
[2]; hFOB and MC3T3
  OPN promoter activity: stimulated the promoter of OPN; also recorded: upregulation in OPN promoter activity
[3]; DM supplemented with SHH (100 nM) or OPN (100 ng/ml) vs DM alone
  numbers of TRAP stained multinucleate cells: significant (p<0.005) increase
[4]
  osteoclast activity (area resorbed): notably enhances (p<0.001) osteoclast activity

From US9464291B2, “Methods and compositions for the treatment of cancer” (University of South Alabama, priority 2012, dated 2016)
